US20240278234A1, “SAMPLE PREPARATION” (priority 2021, published 2024)

Tested on: SARS-CoV-2 target genes E gene, RdRP gene and human RP (positive control)
Experiment: RT-qPCR amplification (YouSeq E-RdRP kit) in the presence of lysis agents: test for PCR inhibition
Assay type: biochemical
Conditions: for qPCR amplification curves, FIG. 4: 2%-0.2% agent; for qPCR amplification curves, FIG. 5: 0.2% and 0.06% agent; for inhibition of amplification (summary of FIGS. 4 and 5): agents tested at 2%, 0.6%, 0.2% and 0.02%, 45 cycles
Method: An E-RdRP kit from YouSeq was used, which is designed to detect SARS-CoV-2, and includes a positive control containing the SARS-CoV-2 target genes E gene, RdRP gene and human RP (as an internal control). Each reaction included: • 10 μL MasterMix • 1 μL Primer/Probe • 3 μL Water • 1 μL Template or Water • 5 μL Buffers
PCR was carried out under the following conditions: • 55 C for 10 mins RT Step • 95 C for 3 mins denaturation • x45 Cycles • 95 C for 15 secs • 60 C for 60 secs
Amplification was monitored using a Quantstudio Q5.

Structure (SMILES)	qPCR amplification curves, FIG. 4	qPCR amplification curves, FIG. 5	inhibition of amplification (summary of FIGS. 4 and 5)
[H]/N=C(\N/C(=N/[H])NCCCCCCNC(=N)NC(=N)Nc1ccc(Cl)cc1)Nc1ccc(Cl)cc1 [chlorhexidine]	Clear PCR inhibitions	no significant inhibition	inhibit at higher concentrations
CC(C)=CCCC(C)=CC=O [citral]	clear inhibitory effect between 2%-0.2%	no significant inhibition	inhibit at higher concentrations
